US9670156B2, “Crystal form III of (S)-oxiracetam, preparation method and use thereof” (Chongqing Runze Pharmaceutical Company Limited, priority 2013, dated 2017)

What was measured:
[1] = parameters: species or system Beagle dogs; conditions: dog, in vivo; for AUCO-∞ / T1/2 / Tmax / bioavailability of crystal form I and III compared: po
From the text: Base on the existing LC-MS method for determination of (S)-oxiracetam in a biological sample, 6 healthy Beagle dogs are used in the experiment. They are weighted 8-10 kg, and divided into two groups of three. They are used to observe the bioavailability of the different crystal forms of (S)-oxiracetam after oral administration to the dogs. The pharmacokinetics of the crystal forms I and III of (S)-oxiracetam in the dogs are studied. And oxiracetam is used as reference preparation to evaluate whether the bioavailability of crystal forms I and III are equivalent. The bioequivalence is evaluated by calculating the pharmacokinetic parameters. Results: The main pharmacokinetic parameters of the crystal forms I and III of (S)-oxiracetam in the Beagle dogs are as follows: Tmax are (1.561±0.398) and (1.498±0.3988), Cmax are (198.076±80.462) and (186.205±50.321) […], respectively; T1/2 are (0.915±0.125) and (0.909±0.112) h, respectively; and AUCO-∞ are (456.268±85.567) and (436.364±75.204) […], respectively.

[2] = parameters: species or system Beagle dogs; conditions: dog, in vivo, po
[3] = Dissolution in aqueous solution compared with other crystal forms; format: physicochemical; conditions: compared with other crystal forms of (S)-oxiracetam

| Compound | AUCO-∞ [1] | T1/2 [1] | Tmax [1] | bioavailability of crystal form I and III compared [1] | Cmax [2] | dissolution in aqueous solution [3] | bioavailability [1] |
| --- | --- | --- | --- | --- | --- | --- | --- |
| NC(=O)CN1C[C@@H](O)CC1=O [crystal form I, (S)-4-hydroxy-2-oxo-1-pyrrolidine acetamide] | 456268 ± 85567 µg·h/mL | 54.9 ± 7.5 min | 1.561±0.398 | exactly the same | 198 ± 80.5 µg/mL |  |  |
| NC(=O)CN1C[C@@H](O)CC1=O [crystal form III, (S)-4-hydroxy-2-oxo-1-pyrrolidine acetamide] | 436364 ± 75204 µg·h/mL | 54.5 ± 6.72 min | 1.498±0.3988 | exactly the same | 186 ± 50.3 µg/mL | dissolves fast | high bioavailability |
